What was measured:
α-1,4-glucan lyase [1] = assay: Substrate specificity for oligosaccharides by Dionex HPLC; assay type: biochemical; conditions: 8 mg/ml substrate, 0.1M MES pH 6.3, 60 min at 30° C.
Procedure: The specificity of α-1,4-glucan lyase for different oligosaccharides was tested. […] The oligosaccharides were dissolved in H2O at a concentration of 8 mg/ml. The enzyme assay contained 150 μl substrate G2/G3/G4/G5/G6/G7, 120 μl 0.1M MES pH 6.3 and 30 μl purified enzyme. The reaction mixture was incubated for 60 min at 30° C. Afterwards the reaction was stopped by boiling for 3 min and 900 μl absolute ethanol was added for precipitation. After centrifugation at 20.000×g for 5 min at 4° C. the supernatant was transferred to a new eppendorf tube and lyophilized.
The freeze-dried samples were dissolved in 1000 μl H2O and were filtrated through a 0.22 μm Millipore filter before 25 μl of the sample was loaded on the Dionex HPLC.
Analyses were performed on a Dionex 4500i chromatography system consisting of a GPM-2 pump and a PED detector which was used in pulse-amperometric detection mode. The anion exchange columns were a CarboPac PA-100 (4×250 mm) and a CarboPac PA-100 guard column (3×25 mm) from Dionex. The eluent were 200 mM sodium hydroxide (A), 500 mM sodium acetate (B) and 18 M ohm de-ionized water (C). The pump was programmed in 2 different ways, method no. 1 and method no.

α-1,4-glucan lyase [2] = assay: Reversible and irreversible inhibitors of the lyase; assay type: biochemical, Gracilariopsis lemaneiformis; conditions: for decrease of lyase activity (inhibition): 0.1 M inhibitor; for inhibition (second, untitled table): lyase not stated
α-1,4-glucan lyase [3] = assay: Degradation studies: AF released by the lyase from various substrates; assay type: biochemical, Gracilariopsis lemaneiformis; conditions: for AF released: substrate 10 mg/ml, 10 mM HOAc-NaOAc pH 3.8, 40 min at 45° C., 100 ul
Procedure: Reaction conditions: The reaction mixture contained 10 mM of HOAc-NaOAc (pH 3.8). The substrate concentration was 10 mg/ml. The final volume was 100 ul after the addition of lyase and water. The reaction time was 40 min at 45° C.

α-1,4-glucan lyase [4] = system: α-1,4-glucan lyase
α-1,4-glucan lyase [5] = assay: Effect of different reaction media upon production of AF by the lyase; assay type: biochemical, Gracilariopsis lemaneiformis; conditions: reaction medium
Source text: The production of AF using either pure water or 0.85% NaCl as reaction medium decreased the yield.

α-1,4-glucan lyase [6] = assay: Km of the lyase; assay type: biochemical, Gracilariopsis lemaneiformis; conditions: substrate of the lyase
Target sequence in this assay (as listed by the source): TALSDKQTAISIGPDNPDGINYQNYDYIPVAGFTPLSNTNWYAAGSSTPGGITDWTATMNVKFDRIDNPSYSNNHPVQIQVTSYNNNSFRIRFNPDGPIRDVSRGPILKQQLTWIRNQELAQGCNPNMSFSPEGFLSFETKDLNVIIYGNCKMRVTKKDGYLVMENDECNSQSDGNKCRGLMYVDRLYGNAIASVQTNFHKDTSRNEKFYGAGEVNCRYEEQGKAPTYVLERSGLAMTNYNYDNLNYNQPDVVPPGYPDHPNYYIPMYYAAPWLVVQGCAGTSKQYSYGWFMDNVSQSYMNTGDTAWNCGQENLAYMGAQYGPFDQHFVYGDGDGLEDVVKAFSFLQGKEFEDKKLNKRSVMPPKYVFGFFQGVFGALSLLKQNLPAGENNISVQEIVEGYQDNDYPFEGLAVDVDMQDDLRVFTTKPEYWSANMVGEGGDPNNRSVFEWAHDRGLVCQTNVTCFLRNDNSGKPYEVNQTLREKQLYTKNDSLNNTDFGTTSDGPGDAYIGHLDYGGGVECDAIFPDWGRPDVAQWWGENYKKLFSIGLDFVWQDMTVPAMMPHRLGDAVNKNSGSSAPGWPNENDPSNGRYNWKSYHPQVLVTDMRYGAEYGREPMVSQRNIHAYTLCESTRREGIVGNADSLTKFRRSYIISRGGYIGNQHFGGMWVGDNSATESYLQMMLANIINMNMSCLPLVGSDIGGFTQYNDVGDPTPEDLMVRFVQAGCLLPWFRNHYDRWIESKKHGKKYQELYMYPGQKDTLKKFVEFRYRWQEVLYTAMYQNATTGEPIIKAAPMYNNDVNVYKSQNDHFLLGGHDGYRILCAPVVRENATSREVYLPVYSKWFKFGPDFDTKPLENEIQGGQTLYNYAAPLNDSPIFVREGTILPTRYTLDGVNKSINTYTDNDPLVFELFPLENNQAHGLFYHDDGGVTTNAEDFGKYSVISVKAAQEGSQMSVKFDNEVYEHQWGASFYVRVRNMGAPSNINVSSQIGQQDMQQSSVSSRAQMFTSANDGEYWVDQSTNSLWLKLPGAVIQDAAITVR

lyase and pullulanase = assay: Cooperation of pullulanase and lyase in the production of AF; assay type: biochemical; conditions: 2% substrate, 30° C., 1 day
Procedure: The reaction mixture contained 0.3 ml 2% potato amylopectin (Sigma) in water or 0.3 ml 2% soluble starch (Merck), 2 μl lyase and 0.36 units pullulanase (BM) as indicated.
The reaction was carried out at 30° C. for 1 day. At the end of the reaction, samples were taken for AF and Glc analysis.

α-1,4-glucan lyase [7] = assay: Effect of substrate on the stability of the lyase; assay type: biochemical; conditions: soluble and immobilized enzyme system
Target sequence in this assay (as listed by the source): as above

[8] = Isoelectric focusing of the α-1,4-glucan lyases; assay type: physicochemical; conditions: isoelectrofocusing, pH gradient 3-9
Source text: The relative migration rates were estimated from native PAGE on gels with 8-25% gradient; the pI values were estimated by isoelectrofocusing on gels with a pH gradient of 3-9.
FIG. 2. Isoelectric focusing of the α-1,4-glucan lyases on a gel with a pH gradient of pH 3 to pH 9. The gel was stained with PhastGel Blue R.

[9] = lyase added, pullulanase omitted
[10] = lyase omitted, pullulanase added

In the case of `OC[C@H]1O[C@H](O[C@H]2[C@H](O)[C@@H](O)C(O)O[C@@H]2CO)[C@H](O)[C@@H](O)[C@@H]1O` (mixture of isomers) [Maltose], the “1,5-anhydrofructose formation from substrate” value (α-1,4-glucan lyase [1]) is reported as “almost no 1,5-anhydrofructose was formed”, the “decrease of lyase activity (inhibition)” value (α-1,4-glucan lyase [2]; substrate amylopectin 1% (10 mg/ml)) is reported as 73.4% and the “decrease of lyase activity (inhibition)” value (α-1,4-glucan lyase [2]; substrate amylopectin 2%) is reported as 67.2%. For the same molecule, the “decrease of lyase activity (inhibition)” value (α-1,4-glucan lyase [2]; substrate glycogen 1% (10 mg/ml)) was 48.8%, the “decrease of lyase activity (inhibition)” value (α-1,4-glucan lyase [2]; substrate glycogen 2%) was 49.7% and the “inhibition (second, untitled table)” value (α-1,4-glucan lyase [2]; substrate amylopectin (1%)) was 80%. The “inhibition (second, untitled table)” value (α-1,4-glucan lyase [2]; substrate glycogen (1%)) was 57%, the “activity of the lyase towards maltosaccharides” value (α-1,4-glucan lyase [3]; in words) was “low activity” and the AF released (α-1,4-glucan lyase [3]) was 657 nmol.

For `O=C(O)CN(CCN(CC(=O)O)CC(=O)O)CC(=O)O` [EDTA], the “effect on lyase activity” value (α-1,4-glucan lyase [4]; up to 20 mM in the reaction mixture) was “little effect”.

For `[Cl-].[Na+]` [NaCl], the “increase of AF yield” value (α-1,4-glucan lyase [4]; 0.85% (0.145 M) in the reaction mixture) was “up to 1 fold”.

In the case of `O` [Water], the AF yield (α-1,4-glucan lyase [5]; reaction time 1 day) is reported as 46 µmol, the AF yield (α-1,4-glucan lyase [5]; reaction time 3 days) is reported as 128 µmol and the AF yield (α-1,4-glucan lyase [5]; reaction time 8 days) is reported as 217 µmol.

With Amylopectin the Km (α-1,4-glucan lyase [6]) was 3.76 mg/mL, the AF released (α-1,4-glucan lyase [3]) was 732 nmol and the “AF Yield (%)” value (lyase and pullulanase; [9]) was 48.0%. The “Glc Yield (%)” value (lyase and pullulanase; [9]) was 0%, the “AF Yield (%)” value (lyase and pullulanase; lyase and pullulanase added) was 71.3% and the “Glc Yield (%)” value (lyase and pullulanase; lyase and pullulanase added) was 3.7%. For the same molecule, the “AF Yield (%)” value (lyase and pullulanase; [10]) was 0%, the “Glc Yield (%)” value (lyase and pullulanase; [10]) was 0.33% and the “effect on stability of the lyase” value (α-1,4-glucan lyase [7]) was “stabilizing effect”.

With Glycogen the Km (α-1,4-glucan lyase [6]) was 3.37 mg/mL and the AF released (α-1,4-glucan lyase [3]) was 592 nmol.

B1: MV-lyase: lyase isolated from the fungus Morchella vulgaris, ATCC (protein)
chain: MAGLSDPLNFCKAEDYYAAAKGWSGPQKIIRYDQTPPQGTKDPKSWHAVNLPFDDGTMCVVQFVRPCVWRVRYDPSVKTSDEYGDENTRTIVQDYMTTLVGNLDIFRGLTWVSTLEDSGEYYTFKSEVTAVDETERTRNKVGDGLKIYLWKNPFRIQVVRLLTPLVDPFPIPNVANATARVADKVVWQTSPKTFRKNLHPQHKMLKDTVLDIIKPGHGEYVGWGEMGGIEFMKEPTFMNYFNFDNMQYQQVYAQGALDSREPLYHSDPFYLDVNSNPEHKNITATFIDNYSQIAIDFGKTNSGYIKLGTRYGGIDCYGISADTVPEIVRLYTGLVGRSKLKPRYILGAHQACYGYQQESDLHAVVQQYRDTKFPLDGLHVDVDFQDNFRTFTTNPITFPNPKEMFTNLRNNGIKCSTNITPVISIRDRPNGYSTLNEGYDKKYFIMDDRYTEGTSGDPQNVRYSFYGGGNPVEVNPNDVWARPDFGDNYDFPTNFNCKDYPYHGGVSYGYGNGTPGYYPDLNREEVRIWWGLQYEYLFNMGLEFVWQDMTTPAIHSSYGDMKGLPTRLLVTADSVTNASEKKLAIESWALYSYNLHKATFHGLGRLESRKNKRNFILGRGSYAGAYRFAGLWTGDNASTWEFWKISVSQVLSLGLNGVCIAGSDTGGFEPARTEIGEEKYCSPELLIRWYTGSFLLPWLRNHYVKKDRKWFQEPYAYPKHLETHPELADQAWLYKSVLEICRYWVELRYSLIQLLYDCMFQNVVDGMPLARSMLLTDTEDTTFFNESQKFLDNQYMAGDDILVAPILHSRNEVPGENRDVYLPLFHTWYPSNLRPWDDQGVALGNPVEGGSVINYTARIVAPEDYNLFHNVVPVYIREGAIIPQIQVRQWIGEGGPNPIKFNIYPGKDKEYVTYLDDGVSRDSAPDDLPQYREAYEQAKVEGKDVQKQLAVIQGNKTNDFSASGIDKEAKGYHRKVSIKQESKDKTRTVTIEPKHNGYDPSKEVGNYYTIILWYAPGFDGSIVDVSQATVNIEGGVECEIFKNTGLHTVVVNVKEVIGTTKSVKITCTTA
With B1 the pI [8] was 4.4.

B2: GLsc2-lyase: second lyase purified from Gracilariopsis lemaneiformis collected in Santa Cruz, Calif. (protein)
chain: TALSDKQTAISIGPDNPDGINYQNYDYIPVAGFTPLSNTNWYAAGSSTPGGITDWTATMNVKFDRIDNPSYSNNHPVQIQVTSYNNNSFRIRFNPDGPIRDVSRGPILKQQLTWIRNQELAQGCNPNMSFSPEGFLSFETKDLNVIIYGNCKMRVTKKDGYLVMENDECNSQSDGNKCRGLMYVDRLYGNAIASVQTNFHKDTSRNEKFYGAGEVNCRYEEQGKAPTYVLERSGLAMTNYNYDNLNYNQPDVVPPGYPDHPNYYIPMYYAAPWLVVQGCAGTSKQYSYGWFMDNVSQSYMNTGDTAWNCGQENLAYMGAQYGPFDQHFVYGDGDGLEDVVKAFSFLQGKEFEDKKLNKRSVMPPKYVFGFFQGVFGALSLLKQNLPAGENNISVQEIVEGYQDNDYPFEGLAVDVDMQDDLRVFTTKPEYWSANMVGEGGDPNNRSVFEWAHDRGLVCQTNVTCFLRNDNSGKPYEVNQTLREKQLYTKNDSLNNTDFGTTSDGPGDAYIGHLDYGGGVECDAIFPDWGRPDVAQWWGENYKKLFSIGLDFVWQDMTVPAMMPHRLGDAVNKNSGSSAPGWPNENDPSNGRYNWKSYHPQVLVTDMRYGAEYGREPMVSQRNIHAYTLCESTRREGIVGNADSLTKFRRSYIISRGGYIGNQHFGGMWVGDNSATESYLQMMLANIINMNMSCLPLVGSDIGGFTQYNDAGDPTPEDLMVRFVQAGCLLPWFRNHYDRWIESKKHGKKYQELYMYPGQKDTLKKFVEFRYRWQEVLYTAMYQNATTGEPIIKAAPMYNNDVNVYKSQNDHFLLGGHDGYRILCAPVVRENATSREVYLPVYSKWFKFGPDFDTKPLENEIQGGQTLYNYAAPLNDSPIFVREGTILPTRYTLDGVNKSINTYTDNDPLVFELFPLENNQAHGLFYHDDGGVTTNAEDFGKYSVISVKAAQEGSQMSVKFDNEVYEHQWGASFYVRVRNMGAPSNINVSSQIGQQDMQQSSVSSRAQMFTSANDGEYWVDQSTNSLWLKLPGAVIQDAAITVR
Work on B2 yielded a pI [8] of 4.1.
